Measurements reported in patent publication US20240270762A1, “PENICILLIN-BINDING PROTEIN INHIBITORS” (priority 2021, published 2024).
≈ marks a conversion by molar mass, not a printed value.

How the values were obtained:
[1] = tested on: E. coli ATCC 25922; test: microbe, parasite or virus in culture; type: cell-based; conditions: Escherichia coli, ATCC25922, read-out: MIC E. coli 25922
[2] = tested on: K. pneumoniae 848844; test: microbe, parasite or virus in culture; type: cell-based; conditions: Klebsiella pneumoniae, 848844, read-out: MIC K. pneumoniae 848844
[3] = target: T1, PBP3 from Pseudomonas aeruginosa (PAO1) (Pseudomonas aeruginosa, UniProt G3XD46); test: Bocillin-FL fluorescence polarization competition binding, P. aeruginosa PBP3; conditions: Binding affinity to P. aeruginosa PBP3; fluorescence polarization competition binding assay using Bocillin-FL; read-out: P. aeruginosa PBP3 Potency
T1 construct: made in house
Text: (§1) To determine the ability of boronic acid-based test PBP inhibitors to bind Penicillin Binding Proteins (PBPs), Bocillin-FL (fluorescently-labeled penicillin V; ThermoFisher Scientific) was used in a fluorescence polarization (FP) competition binding assay to assess inhibitor binding to PBP3 from Escherichia coli (K-12), PBP3 from Pseudomonas aeruginosa (PAO1), PBP1a and PBP3 from Acinetobacter baumannii (ATCC 19606), and PBP2 from Neisseria gonorrhoeae (FA19). PBPs were cloned and purified as described previously (E. coli PBP3, King, D. T, et al., ACS Infectious Diseases 2015, 1, 175-184; P. aeruginosa PBP3, Han et. al., PNAS 2010, 107 (51), 22002-22007; A. baumannii PBPs, Penwell et. al., Antimicrob. Agents Chemother. 2015, 59 (3), 1680-1689; N. gonorrhoeae PBP2, Singh et. al., J. Biol. Chem. 2019, 294 (38), 14020-14032). To establish assay conditions for competition binding, enzyme titration/saturation binding experiments were initially performed. Bocillin-FL was prepared at 0.2 μM in a buffer comprised of 50 mM Hepes (pH 8.0), 300 mM NaCl and 10% (v/v) glycerol for reactions with E. coli, P. aeruginosa and N. gonorrhoeae PBPs, and 25 mM Tris (pH 8.0), 200 mM NaCl, 10% (v/v) glycerol and 0.005% (v/v) Tween 20 for reactions with A. baumannii PBPs. Saturation binding was performed by mixing 40 μl of PBP solutions ranging in concentrations from 0-24 μM with 40 μl of the 0.2 μM Bocillin-FL solution, in individual wells of a black 384-well microplate. FP was measured immediately upon mixing (Excitation, 490 nm; Emission, 520 nm; g-factor, 0.96), using a Cytation3 (BioTek) microplate reader and measured continuously for up to 120 minutes. The FP response stabilized after 15 minutes for P. aeruginosa and A. baumannii PBP3, 30 minutes for E. coli PBP3 and A. baumannii PBP1a, and less than 1 minute for N. gonorrhoeae PBP2. […] The competition binding assay (80 μl final volume) was validated using beta-lactams and PBPs at final concentrations of: 1.5 μM for E. coli PBP3; 0.75 μM for P. aeruginosa PBP3; 1 μM for A. baumannii PBP1a; 0.2 μM for A. baumannii PBP3; and 0.25 μM for N. gonorrhoeae PBP2. Bocillin-FL was at 0.1 μM (0.05 μM with A. baumannii PBP1a) and beta-lactam concentrations ranged from 0-1,000 μM. E. coli PBP3 was incubated with increasing concentrations of ampicillin in a black 384-well microplate (Corning) for 30 minutes. P. aeruginosa PBP3 was incubated for 15 minutes with aztreonam, whereas A. baumannii PBP1a and PBP3 were incubated for 15 minutes with meropenem, and then Bocillin-FL was added followed immediately by the FP measurement for up to 60 minutes. […] The beta-lactam potency was reported as the concentration of beta-lactam required to reduce the amount of PBP bound-Bocillin-FL by 50% (EC50). […] The EC50 of aztreonam was determined to be <0.5 μM for P. aeruginosa PBP3. […] Binding assays for boronic acid PBP inhibitors were performed in an identical fashion for the respective PBPs.

[4] = tested on: P. aeruginosa (ΔmexAB-oprM); test: Broth microdilution MIC in CAMHB; type: cell-based; conditions: Pseudomonas aeruginosa; read-out: MIC P. aeruginosa ΔmexAB-oprM
[5] = target: T2, PBP3 from Escherichia coli (K-12) (Escherichia coli, UniProt P0AD68); test: Bocillin-FL fluorescence polarization competition binding, E. coli PBP3
T2 construct: made in house
Text: as §1

[6] = tested on: P. aeruginosa ATCC 35151; test: microbe, parasite or virus in culture; type: cell-based; conditions: Pseudomonas aeruginosa, ATCC35151, read-out: MIC P. aeruginosa ATCC 35151
[7] = tested on: E. coli 901C; test: microbe, parasite or virus in culture; type: cell-based; conditions: Escherichia coli, read-out: MIC E. coli 901C
[8] = tested on: A. baumannii ATCC 19606; test: microbe, parasite or virus in culture; type: cell-based; conditions: Acinetobacter baumannii, ATCC19606, read-out: MIC, A. baumannii ATCC 19606
[9] = tested on: P. aeruginosa ATCC 27853; test: microbe, parasite or virus in culture; type: cell-based; conditions: Pseudomonas aeruginosa, ATCC27853, read-out: MIC P. aeruginosa ATCC 27853
[10] = tested on: E. coli D22; test: microbe, parasite or virus in culture; type: cell-based; conditions: Escherichia coli, D22, read-out: MIC E. coli D22
[11] = tested on: K. pneumoniae UMM; test: microbe, parasite or virus in culture; type: cell-based; conditions: Klebsiella pneumoniae, read-out: MIC K. pneumoniae UMM
[12] = tested on: E. coli AG100A; test: Broth microdilution MIC in CAMHB; type: cell-based; conditions: Escherichia coli, read-out: MIC E. coli AG100A
[13] = tested on: E. coli AG100; test: microbe, parasite or virus in culture; type: cell-based; conditions: Escherichia coli, AG100, read-out: MIC E. coli AG100
[14] = tested on: K. pneumoniae SI-117; test: microbe, parasite or virus in culture; type: cell-based; conditions: Klebsiella pneumoniae, SI117, read-out: MIC K. pneumoniae SI-117
[15] = tested on: B. humptydooensis ATCC BAA-2767; test: microbe, parasite or virus in culture; type: cell-based; conditions: Burkholderia humptydooensis, ATCCBAA2767, read-out: Minimum inhibitory concentration (MIC), B. humptydooensis ATCC BAA-2767
[16] = target: A. baumannii PBP2 (Acinetobacter baumannii, UniProt D0C8Z9); test: Bocillin-FL competition binding via gel filtration, A. baumannii PBP2
Method: (§2) Affinity to A. baumannii PBP1a and PBP2 was assessed a competitive equilibrium binding assay using Bocillin-FL as the reporter molecule. Enzyme was pre-incubated with increasing concentrations of inhibitors, prior to addition of Bocillin and further incubation for 15 minutes. PBP bound with Bocillin-FL was separated by gel filtration using 96-well Zeba Spin size exclusion plates, and the fluorescence measured. The inhibitor affinity (reported as the EC50) was determined by plotting the fraction of PBP bound with Bocillin-FL at each inhibitor concentration against the inhibitor concentration, and fitting the data to the following equation:
(§3) [formula] • where y is the fraction bound at a given inhibitor concentration, ymin is the fraction bound when the enzyme is completely inactivated, ymax is the maximum (uninhibited) fraction bound, n is the Hill coefficient, and x is the inhibitor concentration.

[17] = tested on: B. thailandensis ATCC 700388; test: microbe, parasite or virus in culture; type: cell-based; conditions: Burkholderia thailandensis, ATCC700388, read-out: Minimum inhibitory concentration (MIC), B. thailandensis ATCC 700388
[18] = target: T3, A. baumannii PBP1a (Acinetobacter baumannii, UniProt A0ABX6CK30); test: Bocillin-FL competition binding via gel filtration, A. baumannii PBP1a; conditions: competition binding assay using Bocillin-FL via gel filtration; read-out: A. baumannii PBP1a Potency
T3 sequence (A0ABX6CK30 1-851): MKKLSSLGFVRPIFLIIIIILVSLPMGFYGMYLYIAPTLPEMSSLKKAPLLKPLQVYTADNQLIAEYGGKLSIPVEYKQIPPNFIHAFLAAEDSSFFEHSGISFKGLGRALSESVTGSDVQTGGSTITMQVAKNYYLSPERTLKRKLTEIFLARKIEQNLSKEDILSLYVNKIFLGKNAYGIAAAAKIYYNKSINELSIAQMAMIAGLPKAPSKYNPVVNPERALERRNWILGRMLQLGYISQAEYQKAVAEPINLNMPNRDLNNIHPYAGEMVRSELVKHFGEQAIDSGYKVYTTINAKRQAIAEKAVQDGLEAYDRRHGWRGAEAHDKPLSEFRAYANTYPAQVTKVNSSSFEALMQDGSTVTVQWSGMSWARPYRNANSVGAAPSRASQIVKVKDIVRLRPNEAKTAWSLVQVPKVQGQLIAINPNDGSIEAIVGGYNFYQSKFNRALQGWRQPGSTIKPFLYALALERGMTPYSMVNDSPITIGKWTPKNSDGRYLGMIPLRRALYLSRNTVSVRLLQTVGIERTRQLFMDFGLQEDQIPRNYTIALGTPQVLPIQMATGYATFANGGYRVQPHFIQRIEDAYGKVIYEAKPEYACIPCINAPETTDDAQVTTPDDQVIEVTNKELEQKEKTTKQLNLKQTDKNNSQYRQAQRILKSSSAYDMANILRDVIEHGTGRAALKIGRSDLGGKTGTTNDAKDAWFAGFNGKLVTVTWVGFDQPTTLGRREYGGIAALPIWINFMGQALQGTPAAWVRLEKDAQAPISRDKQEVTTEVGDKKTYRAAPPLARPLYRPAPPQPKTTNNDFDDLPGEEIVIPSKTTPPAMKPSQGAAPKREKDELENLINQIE
Method: as §2, §3

[19] = tested on: B. pseudomallei Bp82; test: microbe, parasite or virus in culture; type: cell-based; conditions: Burkholderia pseudomallei, BP82, read-out: Minimum inhibitory concentration, B. pseudomallei Bp82
[20] = tested on: N. gonorrhoeae ATCC 49226; test: Liquid broth MIC in Fastidious broth; conditions: Neisseria gonorrhoeae, ATCC49226, read-out: Minimum Inhibitory Concentration, ATCC 49226
[21] = tested on: N. gonorrhoeae FA1090; test: Liquid broth MIC in Fastidious broth; conditions: Neisseria gonorrhoeae, FA1090, read-out: Minimum Inhibitory Concentration, FA 1090
[22] = tested on: N. gonorrhoeae WHO Z; test: Liquid broth MIC in Fastidious broth; conditions: Neisseria gonorrhoeae, read-out: Minimum Inhibitory Concentration, WHO Z

T1 sequence (G3XD46 whole entry): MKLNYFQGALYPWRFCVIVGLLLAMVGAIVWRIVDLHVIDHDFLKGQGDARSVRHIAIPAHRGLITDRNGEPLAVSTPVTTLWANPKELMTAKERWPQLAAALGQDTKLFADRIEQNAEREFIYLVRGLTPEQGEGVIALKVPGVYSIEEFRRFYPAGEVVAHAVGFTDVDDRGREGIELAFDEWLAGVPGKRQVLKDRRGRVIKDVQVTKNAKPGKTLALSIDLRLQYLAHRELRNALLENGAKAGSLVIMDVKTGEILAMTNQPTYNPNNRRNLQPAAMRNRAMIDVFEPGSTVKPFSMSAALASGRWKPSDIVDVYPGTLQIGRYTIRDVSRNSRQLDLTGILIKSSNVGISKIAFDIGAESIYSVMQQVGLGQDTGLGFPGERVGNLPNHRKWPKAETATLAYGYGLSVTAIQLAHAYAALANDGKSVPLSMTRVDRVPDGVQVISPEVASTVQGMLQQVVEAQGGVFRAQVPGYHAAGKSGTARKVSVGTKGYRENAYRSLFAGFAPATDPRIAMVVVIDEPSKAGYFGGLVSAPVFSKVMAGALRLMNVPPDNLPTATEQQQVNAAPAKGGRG
A. baumannii PBP2, sequence (D0C8Z9 whole entry): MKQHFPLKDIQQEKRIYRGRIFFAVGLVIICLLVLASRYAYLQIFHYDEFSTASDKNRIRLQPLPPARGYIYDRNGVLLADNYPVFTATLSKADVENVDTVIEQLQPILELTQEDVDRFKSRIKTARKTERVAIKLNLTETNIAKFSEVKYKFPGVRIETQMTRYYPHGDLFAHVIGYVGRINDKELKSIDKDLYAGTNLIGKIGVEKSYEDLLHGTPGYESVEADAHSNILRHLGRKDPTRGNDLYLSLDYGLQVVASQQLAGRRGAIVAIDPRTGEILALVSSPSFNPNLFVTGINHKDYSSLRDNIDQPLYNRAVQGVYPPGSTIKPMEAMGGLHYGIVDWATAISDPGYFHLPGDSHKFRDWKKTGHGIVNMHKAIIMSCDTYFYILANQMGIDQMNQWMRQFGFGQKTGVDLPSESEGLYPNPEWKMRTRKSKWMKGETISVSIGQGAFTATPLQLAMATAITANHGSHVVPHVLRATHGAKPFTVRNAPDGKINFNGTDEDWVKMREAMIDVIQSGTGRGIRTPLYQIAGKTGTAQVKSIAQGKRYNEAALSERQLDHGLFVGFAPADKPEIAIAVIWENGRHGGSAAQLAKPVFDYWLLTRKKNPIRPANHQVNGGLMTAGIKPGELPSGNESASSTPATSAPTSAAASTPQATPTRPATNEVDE
T2 sequence (P0AD68 1-577): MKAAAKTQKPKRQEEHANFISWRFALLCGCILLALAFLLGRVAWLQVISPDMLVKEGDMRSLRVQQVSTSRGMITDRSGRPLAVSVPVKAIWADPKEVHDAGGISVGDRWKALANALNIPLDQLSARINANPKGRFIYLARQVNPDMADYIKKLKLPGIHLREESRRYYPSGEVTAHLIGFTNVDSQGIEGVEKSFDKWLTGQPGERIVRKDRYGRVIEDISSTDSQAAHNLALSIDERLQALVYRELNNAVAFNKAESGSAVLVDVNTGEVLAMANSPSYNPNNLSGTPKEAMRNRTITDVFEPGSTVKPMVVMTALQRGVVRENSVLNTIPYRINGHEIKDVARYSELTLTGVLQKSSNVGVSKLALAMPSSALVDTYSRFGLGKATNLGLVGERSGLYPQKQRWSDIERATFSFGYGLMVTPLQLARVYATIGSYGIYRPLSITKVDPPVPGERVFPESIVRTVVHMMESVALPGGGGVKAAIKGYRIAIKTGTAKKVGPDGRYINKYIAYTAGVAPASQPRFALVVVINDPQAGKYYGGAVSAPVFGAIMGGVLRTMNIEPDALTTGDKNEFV

| Structure (SMILES) | MIC [1] | MIC [2] | IC50 [3] | MIC [4] | EC50 [5] | MIC [6] | MIC [7] | MIC [8] | MIC [9] | MIC [10] | MIC [11] | MIC [12] | MIC [13] | MIC [14] | MIC [15] | EC50 [16] | MIC [17] | EC50 [18] | MIC [19] | further results |
| --- | --- | --- | --- | --- | --- | --- | --- | --- | --- | --- | --- | --- | --- | --- | --- | --- | --- | --- | --- | --- |
| O=C(N[C@@H](C(=O)N[C@H]1Cc2cccc(C(=O)O)c2OB1O)c1ccc(P(=O)(O)O)cc1)c1cnc2ccnn2c1 (single isomer, unassigned) [Example 187] | > 128 mg/L | > 128 mg/L | < 10 µM | 32 to 64 mg/L (≈ 56.6 to 113 µM) | 10 to 50 µM | 2 to 4 mg/L (≈ 3.54 to 7.08 µM) | 8 to 16 mg/L (≈ 14.2 to 28.3 µM) | > 128 mg/L | > 128 mg/L | 32 to 64 mg/L (≈ 56.6 to 113 µM) | > 128 mg/L | > 128 mg/L | > 128 mg/L | > 128 mg/L |  |  |  |  |  |  |
| O=C(N[C@@H](C(=O)N[C@H]1Cc2cccc(C(=O)O)c2OB1O)c1ccc(P(=O)(O)O)cc1)c1cnc2cccn2c1 (single isomer, unassigned) [Example 499] | > 128 mg/L | > 128 mg/L | < 10 µM | 32 to 64 mg/L (≈ 56.7 to 113 µM) | 10 to 50 µM | 2 to 4 mg/L (≈ 3.54 to 7.09 µM) | 2 to 4 mg/L (≈ 3.54 to 7.09 µM) | > 128 mg/L | > 128 mg/L | 32 to 64 mg/L (≈ 56.7 to 113 µM) | > 128 mg/L | 32 to 64 mg/L (≈ 56.7 to 113 µM) | > 128 mg/L | > 128 mg/L |  |  |  |  |  |  |
| O=C(O)c1c(F)ccc2c1OB(O)[C@@H](NC(=O)C(NC(=O)N1CCN(C3CCN(Cc4ccc(O)cc4)CC3)C1=O)c1cc(F)c(O)c(O)c1Cl)C2 (single isomer, unassigned) [Example 609] |  |  |  |  |  |  |  |  |  |  |  |  |  |  | < 1 mg/L | 10 to 50 µM | < 1 mg/L | < 10 µM | < 1 mg/L |  |
| O=C(O)c1c(F)ccc2c1OB(O)[C@@H](NC(=O)C(NC(=O)N1CCN(C3CCN(Cc4ccc(O)c(F)c4)CC3)C1=O)c1cc(F)c(O)c(O)c1Cl)C2 (single isomer, unassigned) [Example 610] |  |  |  |  |  |  |  |  |  |  |  |  |  |  | < 1 mg/L | 10 to 50 µM | < 1 mg/L | < 10 µM | < 1 mg/L |  |
| O=C(O)c1c(F)ccc2c1OB(O)[C@@H](NC(=O)C(NC(=O)N1CCN(C3CCN(Cc4cc(O)cc(O)c4)CC3)C1=O)c1cc(F)c(O)c(O)c1Cl)C2 (single isomer, unassigned) [Example 612] |  |  |  |  |  |  |  |  |  |  |  |  |  |  | < 1 mg/L | 10 to 50 µM | < 1 mg/L | < 10 µM | < 1 mg/L |  |
| O=C(NC(C(=O)N[C@H]1Cc2cccc(C(=O)O)c2OB1O)c1ccc(P(=O)(O)O)cc1)c1ccc2ccnn2c1 (stereo partly drawn) [Example 498, (3R)-2-hydroxy-3-(2-(4-phosphonophenyl)-2-(pyrazolo[1,5-a]pyridine-6-carboxamido)acetamido)-3,4-dihydro-2H-benzo[e][1,2]oxaborinine-8-carboxylic acid] | > 128 mg/L | > 128 mg/L | 10 to 50 µM | > 128 mg/L | 50 to 250 µM | 8 to 16 mg/L (≈ 14.2 to 28.4 µM) | 32 to 64 mg/L (≈ 56.7 to 113 µM) | > 128 mg/L | > 128 mg/L | > 128 mg/L | > 128 mg/L | > 128 mg/L | > 128 mg/L | > 128 mg/L |  |  |  |  |  | MIC [20]: > 64 mg/L; MIC [21]: 4 to 8 mg/L (≈ 7.09 to 14.2 µM); MIC [22]: > 64 mg/L |
